Data: patent publication US20230263758A1, “COMPOSITIONS OF EDTA HAVING ACTIVITY AGAINST PLANKTONIC AND BIOFILM CELLS OF CLINICALLY RELEVANT PATHOGENS” (SterileCare Inc., priority 2022, published 2023)
Structures can show the parent of a compound that is named as a salt.

How the values were obtained:
[1] = test system: Stenotrophomonas maltophilia ON17; assay: Checkerboard, FMCI; format: cell-based; details: S. maltophilia ON17; EDTA + chlorhexidine HCl
Procedure: (§1) An assay was made using a minimum inhibitory concentration (MIC) and minimum bactericidal concentration (MBC) and minimum fungicidal concentration (MFC) determination. The MIC was determined by the micro broth dilution method in 96-well plates. Serial two-fold dilutions of tetrasodium EDTA (from 2% to 0.015%), ethanol (from 50% to 0.1%) and chlorhexidine HCl (from 100 μg/mL to 0.025 μg/mL) were prepared in MH broth with a final volume of 90 μL per well. A 10 μL containing 1×10^5 bacterial cells or 2×10^3 fungal cells were added to each well. The inoculated plates were covered with a lid, sealed with Parafilm, and incubated for 24 h at 37° C. with slight rocking on a tilting platform shaker. After incubation, the optical density at 600 nm (OD 600) of the cultures in each well was measured using an xMark™ Microplate Absorbance Spectrophotometer (Bio-Rad). […] MBCs and MFCs were determined by transferring 100 μL from each well with no apparent growth onto appropriate agar plates, followed by incubation for 24 h at 37° C.
(§2) A fourth composition and solution included tetrasodium EDTA with ethanol or chlorhexidine HCl. This fourth composition and solution were created using checkerboard titration methods using micro broth dilution in 96-well microtiter plates. The concentrations of antimicrobials used were based on previously determined MIC values. Briefly, 200 μL of two-fold dilutions of tetrasodium EDTA and ethanol or chlorhexidine HCl were prepared in MH or MH II broth with standardized cell suspension. […] Microtiter plates were incubated at 37° C. for 24 h, and the results were analyzed. Each test was performed in duplicate and included a growth control without adding any antimicrobials.

[2] = test system: Staphylococcus aureus ON89; assay: Checkerboard FBEC index, 48-h biofilm; format: cell-based; details: S. aureus ON89 biofilm
Procedure: (§4) In step (4), microtiter plates are incubated at 37° C. for 24 h. then (6), after incubation, the bacterial and fungal cells were dislodged from the pegs into the recovery medium described above.
(§5) Three 10-μL aliquots, for a total of 30 μL from each well of recovery medium, were spotted on MH agar plates and incubated for 24 h at 37° C. […] The FBEC determination is a modification of the FICI.

Escherichia coli SK2 [3] = assay: Checkerboard FBEC index, 48-h biofilm; format: cell-based; details: E. coli SK2 biofilm; EDTA + chlorhexidine HCl
Procedure: as §4, §5

Serratia marcescens SK2 = assay: Checkerboard titration, FICI; format: cell-based; details: S. marcescens SK2
Procedure: as §2

[4] = test system: Staphylococcus aureus ON89; assay: Checkerboard titration, FICI; format: cell-based; details: S. aureus ON89
Procedure: as §2

Candida albicans SK4b [5] = assay: Checkerboard titration, FICI; format: cell-based; details: C. albicans SK4b
Procedure: as §2

[6] = test system: Staphylococcus epidermidis ON170; assay: Checkerboard titration, FICI; format: cell-based; details: S. epidermidis ON170
Procedure: as §2

Escherichia coli ON29 = assay: Checkerboard titration, FICI; format: cell-based; details: E. coli ON29
Procedure: as §2

Proteus mirabilis ON153 [7] = assay: Checkerboard titration, FICI; format: cell-based; details: P. mirabilis ON153
Procedure: as §2

[8] = test system: Stenotrophomonas maltophilia ON17; assay: Checkerboard titration, FICI; format: cell-based; details: S. maltophilia ON17
Procedure: as §2

[9] = test system: Pseudomonas aeruginosa SK1; assay: Checkerboard titration, FICI; format: cell-based; details: P. aeruginosa SK1
Procedure: as §2

E. coli SK2 = assay: MBC/MFC determination; format: cell-based, Escherichia coli; details: agent alone
Procedure: as §1

C. albicans ON47 = assay: MBEC assay, 48-h biofilm; format: cell-based, Candida albicans; details: C. albicans ON47 48-h biofilm; 24 h exposure
Procedure: A biofilm cultivation cell composition was provided. This fifth composition was created using an MBEC Assay® biofilm inoculator, consisting of a polystyrene lid with 96 downward-protruding pegs and a corresponding base used to grow biofilms. A standardized inoculum was diluted in an appropriate biofilm growth medium to achieve a viable cell count of 1.5×10^6 CFU/mL of bacterial cells or 5×10^5 CFU/mL of fungal cells. Then, 150 μL of this inoculum was transferred into each appropriate well, and the peg lids were inserted into the microtiter plates. The plates were sealed with Parafilm and were incubated at optimum temperature for 48 h with slight rocking for bacteria and shaking at 200 rpm for fungal strains. After incubation, the peg lid was removed from the base and rinsed twice with sterile phosphate-buffered saline (PBS) for 2 min to remove loosely attached non-sessile cells. Before the antimicrobial challenge, the pegs in column 1 (n=8) were considered the biofilm growth control; these pegs were removed from the lids, placed into 200 μL of recovery medium, and analyzed for starting biofilm cell numbers as described below. […] MBEC values were determined as the minimum concentration of antimicrobials that yielded a viable cell count at or lower than the 125 CFU/mL detection limit.

[10] = test system: Staphylococcus aureus ON89; assay: MBEC assay, 48-h biofilm; format: cell-based; details: S. aureus ON89 48-h biofilm; 24 h exposure
Procedure: (§3) A biofilm cultivation cell composition was provided. This fifth composition was created using an MBEC Assay® biofilm inoculator, consisting of a polystyrene lid with 96 downward-protruding pegs and a corresponding base used to grow biofilms. A standardized inoculum was diluted in an appropriate biofilm growth medium to achieve a viable cell count of 1.5×10^6 CFU/mL of bacterial cells or 5×10^5 CFU/mL of fungal cells. Then, 150 μL of this inoculum was transferred into each appropriate well, and the peg lids were inserted into the microtiter plates. The plates were sealed with Parafilm and were incubated at optimum temperature for 48 h with slight rocking for bacteria and shaking at 200 rpm for fungal strains. After incubation, the peg lid was removed from the base and rinsed twice with sterile phosphate-buffered saline (PBS) for 2 min to remove loosely attached non-sessile cells. Before the antimicrobial challenge, the pegs in column 1 (n=8) were considered the biofilm growth control; these pegs were removed from the lids, placed into 200 μL of recovery medium, and analyzed for starting biofilm cell numbers as described below. The rinsed pegs were placed into new 96-well plates containing two-fold dilutions of antimicrobials such as tetrasodium EDTA (4%-0.0125%), ethanol (100%-0.2%), and chlorhexidine HCl (100 μg/mL-0.4 μg/mL) in 200 μL of suitable biofilm growth medium per well and incubated at optimum temperature for 24 h. After the antimicrobial challenge, the pegs were rinsed twice with sterile PBS for 2 min and placed into a new 96-well plate containing 200 μL of recovery medium. The recovery plates were sealed with Parafilm, and biofilm cells were dislodged from the pegs by sonication for 30 min with a Branson 3510 bath sonicator. The biofilm cells in the recovery medium were serially diluted, and a drop dilution assay was performed to enumerate the viable cells. MBEC values were determined as the minimum concentration of antimicrobials that yielded a viable cell count at or lower than the 125 CFU/mL detection limit.

Candida albicans SK4b [11] = assay: MBEC assay, 48-h biofilm; format: cell-based; details: C. albicans SK4b 48-h biofilm; 24 h exposure
Procedure: as §3

[12] = test system: Staphylococcus epidermidis SK9; assay: MBEC assay, 48-h biofilm; format: cell-based; details: S. epidermidis SK9 48-h biofilm; 24 h exposure
Procedure: as §3

Proteus mirabilis ON153 [13] = assay: MBEC assay, 48-h biofilm; format: cell-based; details: P. mirabilis ON153 48-h biofilm; 24 h exposure
Procedure: as §3

Escherichia coli SK2 [14] = assay: MBEC assay, 48-h biofilm; format: cell-based; details: E. coli SK2 48-h biofilm; 24 h exposure
Procedure: as §3

[15] = test system: Pseudomonas aeruginosa SK1; assay: MBEC assay, 48-h biofilm; format: cell-based; details: P. aeruginosa SK1 48-h biofilm; 24 h exposure
Procedure: as §3

[16] = EDTA + chlorhexidine HCl checkerboard

Row | SMILES | Microbicidal concentration in combination [1] | Biofilm eradication concentration in combination (FBEC) (Escherichia coli SK2 [3]) | Inhibitory concentration in combination (Serratia marcescens SK2; [16]) | Inhibitory concentration in combination [4, 16] | Inhibitory concentration in combination (Candida albicans SK4b [5]; [16]) | Inhibitory concentration in combination [6, 16] | Inhibitory concentration in combination (Escherichia coli ON29; [16]) | Inhibitory concentration in combination (Proteus mirabilis ON153 [7]; [16]) | Inhibitory concentration in combination [8, 16] | Inhibitory concentration in combination [9, 16] | also measured
1 | [H]/N=C(\N/C(=N/[H])NCCCCCCNC(=N)NC(=N)Nc1ccc(Cl)cc1)Nc1ccc(Cl)cc1 [Chlorhexidine HCl, chlorhexidine HCl, reference compound] | 0.4 µg/mL | 3.125 µg/mL | 1.5 µg/mL | 0.1 µg/mL | 0.8 µg/mL | 0.05 µg/mL | 0.2 µg/mL | 0.8 µg/mL | 0.2 µg/mL | 0.8 µg/mL | Biofilm eradication concentration in combination (FBEC) ([2]; EDTA + chlorhexidine HCl): 3.125 µg/mL
2 | O=C([O-])CN(CCN(CC(=O)[O-])CC(=O)[O-])CC(=O)[O-].[Na+].[Na+].[Na+].[Na+] [EDTA, tetrasodium EDTA] | 0.031 % w/v | 0.031 % w/v | 0.063 % w/v | 0.008 % w/v | 0.063 % w/v | 0.063 % w/v | 0.008 % w/v | 0.063 % w/v | 0.015 % w/v | 0.5 % w/v | MBC/MFC (E. coli SK2): 0.5 % w/v; MBEC (C. albicans ON47): 1 % w/v; Biofilm eradication concentration in combination (FBEC) ([2]; EDTA + ethanol): 0.063 % w/v; MBEC [10]: 4 % w/v; MBEC (Candida albicans SK4b [11]): 1 % w/v; MBEC [12]: 2 % w/v; MBEC (Proteus mirabilis ON153 [13]): 4 % w/v; MBEC (Escherichia coli SK2 [14]): 2 % w/v; MBEC [15]: 4 % w/v; Inhibitory concentration in combination (Serratia marcescens SK2; EDTA + ethanol checkerboard): 0.5 % w/v; Inhibitory concentration in combination ([4]; EDTA + ethanol checkerboard): 0.015 % w/v; Inhibitory concentration in combination (Candida albicans SK4b [5]; EDTA + ethanol checkerboard): 0.25 % w/v; Inhibitory concentration in combination ([6]; EDTA + ethanol checkerboard): 0.015 % w/v; Inhibitory concentration in combination (Escherichia coli ON29; EDTA + ethanol checkerboard): 0.25 % w/v; Inhibitory concentration in combination (Proteus mirabilis ON153 [7]; EDTA + ethanol checkerboard): 0.5 % w/v; Inhibitory concentration in combination ([8]; EDTA + ethanol checkerboard): 0.031 % w/v; Inhibitory concentration in combination ([9]; EDTA + ethanol checkerboard): 0.031 % w/v
